Among the data in PubChem BioAssay AID2020 (NMMLSC, 2009) are EC50 and Ki values, retold here.

In the test the target is Cell division control protein 42 homolog (Homo sapiens) (UniProt P60953). In words: fluorescent GTP binding blockers of active-mutant Cdc42 – biochemical, pyrazoline analogs, multiplex bead flow cytometry, Ki, SAR follow-up (AID 2020). Particulars: bead-based flow cytometry, Bodipy-FL-GTP binding; for pKi: measured here: Ki calculated from EC50.

The structures appear in SMILES notation. pEC50, pKi: −log10 of the molar value. Activity calls are given as the source filed them.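 How the source made its calls: active means EC50 at or below 30 µM together with a response span of at least a set limit; inactive means the rest.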

Cell division control protein 42 homolog (Homo sapiens), sequence (P60953 whole entry, looked up, change not shown): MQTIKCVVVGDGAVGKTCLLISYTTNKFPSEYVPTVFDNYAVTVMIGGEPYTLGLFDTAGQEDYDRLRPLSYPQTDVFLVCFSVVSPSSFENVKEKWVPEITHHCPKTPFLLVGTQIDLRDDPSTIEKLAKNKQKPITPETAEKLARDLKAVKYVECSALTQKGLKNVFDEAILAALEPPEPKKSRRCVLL

The EC50 is the concentration at which the effect is half-maximal. As to `COc1ccc(C2CC(c3ccccc3)=NN2c2ccc(C(N)=O)cc2)cc1` (stereo not given), the EC50 is > 30 µM (inactive).

Consider `COc1ccc(C2CC(c3ccc(C(F)(F)F)cc3)=NN2c2ccc(S(N)(=O)=O)cc2)cc1` (stereo not given), for which the EC50 is > 30 µM (inactive).

Consider `COc1ccc(C2CC(c3ccc(F)cc3)=NN2c2cc(Cl)ccc2Cl)cc1` (stereo not given), for which the EC50 is > 30 µM (inactive).

Broadly, the pEC50 is −log10 of the EC50, conventionally taken in molar units. What is called pKi is the Ki on a negative log10 scale, so that one unit is a factor of ten. Take `COc1ccc(C2CC(c3ccsc3)=NN2c2ccc(S(N)(=O)=O)cc2)cc1` (stereo not given): the negative-log EC50 (pEC50) was 5.13 and the pKi is 5.94.

As for `O=[N+]([O-])c1ccc(N2N=C(c3ccccc3)CC2c2ccc(O)cc2)cc1` (stereo not given), the EC50 was > 30 µM (inactive).

As for `FC(F)(F)c1ccccc1C1CC(c2ccc(Br)cc2)=NN1c1ccccc1` (stereo not given), the EC50 is > 30 µM (inactive).

Take `Cc1ccccc1N1N=C(c2ccccc2)CC1c1ccc(N(C)C)cc1` (stereo not given): the EC50 was > 30 µM (inactive).

For `COc1ccc(C2CC(c3ccccc3)=NN2c2cccc(S(N)(=O)=O)c2)cc1` (stereo not given), the EC50 entry was “inactive” and the pKi was 8.00.

Take `COc1ccc(C2CC(c3ccccc3)=NN2c2ccc(Cl)c(C(=O)O)c2)cc1` (stereo not given): the EC50 was > 30 µM (inactive).

For the compound `CN(C)c1ccc(C2CC(c3ccc(F)cc3)=NN2c2ccccc2)cc1` (stereo not given), the EC50 was > 30 µM (inactive).

Turning to `NS(=O)(=O)c1ccc(N2N=C(c3ccc(Cl)cc3)CC2c2ccccc2)cc1` (stereo not given), the negative-log EC50 (pEC50) is 5.15 and the negative logarithm of the Ki (pKi) is 5.96.

`COc1ccccc1N1N=C(c2ccccc2)CC1c1ccccc1` (stereo not given): the EC50 was > 30 µM (inactive).

Turning to `COc1ccc(C2CC(c3cccc(C(F)(F)F)c3)=NN2c2ccc(S(N)(=O)=O)cc2)cc1` (stereo not given), the EC50 was > 30 µM (inactive).

Regarding `COc1ccc(C2CC(c3cccnc3)=NN2c2ccc(S(N)(=O)=O)cc2)cc1` (stereo not given), the EC50 is > 30 µM (inactive).

Consider `COc1ccc(C2CC(c3cccc(C)c3)=NN2c2ccc(S(N)(=O)=O)cc2)cc1` (stereo not given), for which the pEC50 is 5.39 and the pKi is 6.20.

Regarding `CC(=O)Oc1ccc(C2=NN(c3ccccc3)C(c3ccccc3)C2)cc1` (stereo not given), the EC50 entry is “inactive” and the pKi is 5.42.

As to `COc1ccc(C2CC(c3ccccc3)=NN2c2ccc([N+](=O)[O-])cc2)cc1` (stereo not given), the EC50 was > 30 µM (inactive).

As to `COc1ccc(C2CC(C3CCCCC3)=NN2c2ccc(S(N)(=O)=O)cc2)cc1` (stereo not given), the EC50 is > 30 µM (inactive).

As for `COc1ccc(C2CC(c3ccc(Br)cc3)=NN2c2ccccc2Cl)cc1` (stereo not given), the EC50 was > 30 µM (inactive).

In the case of `COc1ccc(C2CC(c3ccccc3F)=NN2c2ccc(S(N)(=O)=O)cc2)cc1` (stereo not given), the negative-log EC50 (pEC50) is 5.45 and the negative logarithm of the Ki (pKi) was 6.26.

For `COc1ccc(C2CC(c3ccc(Br)cc3)=NN2c2ccc(S(N)(=O)=O)cc2)cc1` (stereo not given), the EC50 entry is “inactive” and the negative-log Ki (pKi) was 6.36.

With `Clc1cccc(N2N=C(c3ccccc3)CC2c2ccccc2)c1` (stereo not given), the EC50 is > 30 µM (inactive).

With `COc1ccc(C2=NN(c3ccc(S(N)(=O)=O)cc3)C(c3ccc(OC)cc3)C2)cc1` (stereo not given), the EC50 result was “inactive” and the pKi was 6.41.

On to `NS(=O)(=O)c1ccc(N2N=C(c3ccccc3)CC2c2ccccc2Br)cc1` (stereo not given), for which the EC50 is > 30 µM (inactive).

As to `COc1ccc(C2CC(c3cccc(OC)c3)=NN2c2ccc(S(N)(=O)=O)cc2)cc1` (stereo not given), the pEC50 was 5.80 and the negative logarithm of the Ki (pKi) was 6.60.

As for `COc1ccc(C2CC(c3ccccc3Br)=NN2c2ccc(S(N)(=O)=O)cc2)cc1` (stereo not given), the EC50 was > 30 µM (inactive).

`CCc1ccc(C2=NN(c3ccc(S(N)(=O)=O)cc3)C(c3ccc(F)cc3)C2)cc1` (stereo not given): the EC50 entry was “inactive”.

With `Clc1ccc(N2N=C(c3ccccc3)CC2c2ccccc2)cc1` (stereo not given), the EC50 is > 30 µM (inactive).

With `COc1ccc(C2CC(c3ccc(Cl)cc3)=NN2c2ccc(S(N)(=O)=O)cc2)cc1` (stereo not given), the pEC50 is 5.39 and the negative logarithm of the Ki (pKi) is 6.20.

Turning to `Fc1ccc(C2=NN(c3cccc(Br)c3)C(c3ccccc3)C2)cc1` (stereo not given), the EC50 was > 30 µM (inactive).
